Laboratory results: US8859541B2, “6-alkynylpyridines” (Boehringer Ingelheim International GmbH, priority 2012, dated 2014)

Target: T1, XIAP BIR3 (Homo sapiens, UniProt P98170)
T1 construct: covering amino acids 241 to 356; XIAP BIR3; made in house; host or cells: E. coli
Assay: XIAP BIR3 binding assay (DELFIA), displacement of SMAC peptide
Conditions: GST-fusion BIR3 domain (aa 241 to 356) 10 nM, SMAC peptide 10 nM; activity of the (S)-isomers
Summary of the method: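 Each BIR3 domain (10 nM) incubated with biotinylated N-terminal SMAC peptide (10 nM) and compound for 1 h at room temp in Tris/NaCl buffer with BSA, DTT and Triton X-100. Captured on streptavidin plates; bound BIR3 detected by Eu-labelled anti-GST time-resolved fluorescence, giving IC50 values.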

T1 sequence (P98170 241-356): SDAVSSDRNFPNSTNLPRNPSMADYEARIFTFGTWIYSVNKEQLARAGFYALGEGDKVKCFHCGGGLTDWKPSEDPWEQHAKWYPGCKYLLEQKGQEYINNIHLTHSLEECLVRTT

IC50	SMILES
1240 nM	CNC(C)C(=O)Nc1ccc(-c2cnccc2OC)c(C#Cc2ccc3cnccc3c2)n1 (centres unmarked) [Example 153, N-[6-(2-isoquinolin-6-ylethynyl)-5-(4-methoxypyridin-3-yl)-pyridin-2-yl]-2-(methylamino)-propanamide]
569 nM	CNC(C)C(=O)Nc1ccc(-c2cnccc2OC)c(C#Cc2ccc3ccccc3c2)n1 (centres unmarked) [Example 154, N-[5-(4-methoxypyridin-3-yl)-6-(2-naphthalen-2-ylethynyl)-pyridin-2-yl]-2-(methylamino)-propanamide]
284 nM	CNC(C)C(=O)Nc1ccc(-c2cnc(N3CCCC3)nc2)c(C#Cc2ccc3ccccc3c2)n1 (centres unmarked) [Example 155, 2-(methylamino)-N-[6-(2-naphthalen-2-ylethynyl)-5-(2-pyrrolidin-1-ylpyrimidin-5-yl)-pyridin-2-yl]propanamide]
3180 nM	CNC(C)C(=O)Nc1ccc(-c2c(-c3ccccc3)noc2C)c(C#Cc2ccc3ccccc3c2)n1 (centres unmarked) [Example 156, 2-(methylamino)-N-[5-(5-methyl-3-phenyl-1,2-oxazol-4-yl)-6-(2-naphthalen-2-ylethynyl)pyridin-2-yl]propanamide]
276 nM	CNc1ncc(-c2ccc(NC(=O)C(C)NC)nc2C#Cc2ccc3ccccc3c2)cn1 (centres unmarked) [Example 157, 2-(methylamino)-N-[5-[2-(methylamino)pyrimidin-5-yl]-6-(2-naphthalen-2-ylethynyl)-pyridin-2-yl]propanamide]
772 nM	CNC(C)C(=O)Nc1ccc(-c2cnc(SC)nc2)c(C#Cc2ccc3ccccc3c2)n1 (centres unmarked) [Example 158, 2-(methylamino)-N-[5-(2-methylsulfanylpyrimidin-5-yl)-6-(2-naphthalen-2-ylethynyl)-pyridin-2-yl]propanamide]
767 nM	CNC(C)C(=O)Nc1ccc(-c2cncnc2C(C)C)c(C#Cc2ccc3ccccc3c2)n1 (centres unmarked) [Example 159, 2-(methylamino)-N-[6-(2-naphthalen-2-ylethynyl)-5-(4-propan-2-ylpyrimidin-5-yl)-pyridin-2-yl]propanamide]
474 nM	CNC(C)C(=O)Nc1ccc(-c2cnccc2C#N)c(C#Cc2cc(F)cc(F)c2)n1 (centres unmarked) [Example 160, N-[5-(4-cyanopyridin-3-yl)-6-[2-(3,5-difluorophenyl)ethynyl]-pyridin-2-yl]-2-(methylamino)-propanamide]
1820 nM	CNC(C)C(=O)Nc1ccc(-c2c(F)ccc3ccc(C)nc23)c(C#Cc2ccccc2)n1 (centres unmarked) [Example 162, N-[5-(7-fluoro-2-methylquinolin-8-yl)-6-(2-phenylethynyl)pyridin-2-yl]-2-(methylamino)propan-amide]
4450 nM	CNC(C)C(=O)Nc1ccc(-c2c(OC)ccc3ccccc23)c(C#Cc2ccccc2)n1 (centres unmarked) [Example 163, N-[5-(2-methoxynaphthalen-1-yl)-6-(2-phenylethynyl)pyridin-2-yl]-2-(methylamino)propanamide]
335 nM	CNC(C)C(=O)Nc1ccc(-c2c(C)nn(C)c2C)c(C#Cc2ccc3cnccc3c2)n1 (centres unmarked) [Example 164, N-[6-(2-isoquinolin-6-ylethynyl)-5-(1,3,5-trimethylpyrazol-4-yl)-pyridin-2-yl]-2-(methylamino)-propanamide]
898 nM	CC(N)C(=O)Nc1ccc(C2CCCC2)c(C#Cc2ccccc2)n1 (centres unmarked) [Example 166, 2-amino-N-[5-cyclopentyl-6-(2-phenylethynyl)pyridin-2-yl]-propan-amide]
874 nM	CCCc1ccc(NC(=O)C(C)N)nc1C#Cc1ccccc1 (centres unmarked) [Example 167, 2-amino-N-[6-(2-phenylethynyl)-5-propylpyridin-2-yl]propanamide]
1150 nM	CCNC(CC)C(=O)Nc1ccc(-c2cncnc2)c(C#Cc2ccc3ncccc3c2)n1 (centres unmarked) [Example 169, 2-(ethylamino)-N-[5-pyrimidin-5-yl-6-(2-quinolin-6-ylethynyl)pyridin-2-yl]butanamide]
1370 nM	CCNC(CC)C(=O)Nc1ccc(-c2cncnc2)c(C#Cc2ccc3ncccc3c2)n1 (centres unmarked) [Example 170, 2-(ethylamino)-N-[5-pyrimidin-5-yl-6-(2-quinolin-6-ylethynyl)pyridin-2-yl]-butanamide]
1030 nM	Cc1noc(C)c1-c1ccc(NC(=O)C(C)NC(C)C)nc1C#Cc1ccccc1 (centres unmarked) [Example 171, N-[5-(3,5-dimethyl-1,2-oxazol-4-yl)-6-(2-phenylethynyl)pyridin-2-yl]-2-(propan-2-ylamino)propanamide]
502 nM	CCCNC(C)C(=O)Nc1ccc(-c2c(C)noc2C)c(C#Cc2ccccc2)n1 (centres unmarked) [Example 172, N-[5-(3,5-dimethyl-1,2-oxazol-4-yl)-6-(2-phenylethynyl)-pyridin-2-yl]-2-(propylamino)-propanamide]
324 nM	CNC(C)C(=O)Nc1ccc(-c2c(C)ncnc2C)c(C#Cc2ccc3ccccc3c2)n1 (centres unmarked) [Example 173, N-[5-(4,6-dimethylpyrimidin-5-yl)-6-(2-naphthalen-2-ylethynyl)pyridin-2-yl]-2-(methylamino)propanamide]
214 nM	CNC(C)C(=O)Nc1ccc(-c2ccc3c(c2)C(=O)CCC3)c(C#Cc2ccccc2)n1 (centres unmarked) [Example 178, 2-(methylamino)-N-[5-(8-oxo-6,7-dihydro-5H-naphthalen-2-yl)-6-(2-phenylethynyl)pyridin-2-yl]-propanamide]

IC50	SMILES
3800 nM	CNC(C)C(=O)Nc1ccc(-c2nccc3ccccc23)c(C#Cc2ccccc2)n1 (centres unmarked) [Example 179, N-[5-isoquinolin-1-yl-6-(2-phenylethynyl)pyridin-2-yl]-2-(methylamino)propanamide]
260 nM	CNC(C)C(=O)Nc1ccc(-c2cscc2-c2ccncc2)c(C#Cc2ccccc2)n1 (centres unmarked) [Example 180, 2-(methylamino)-N-[6-(2-phenyl-ethynyl)-5-(4-pyridin-4-ylthiophen-3-yl)pyridin-2-yl]-propanamide]
222 nM	CNC(C)C(=O)Nc1ccc(-c2ccc([N+](=O)[O-])nc2)c(C#Cc2ccccc2)n1 (centres unmarked) [Example 181, 2-(methylamino)-N-[5-(6-nitropyridin-3-yl)-6-(2-phenyl-ethynyl)pyridin-2-yl]propanamide]
146 nM	CNC(C)C(=O)Nc1ccc(-c2ccc(C(N)=O)nc2)c(C#Cc2ccccc2)n1 (centres unmarked) [Example 183, 5-[6-[[2-(methylamino)-propanoyl]amino]-2-(2-phenyl-ethynyl)pyridin-3-yl]pyridine-2-carboxamide]
128 nM	CNC(C)C(=O)Nc1ccc(-c2cnoc2C)c(C#Cc2ccccc2)n1 (centres unmarked) [Example 188, 2-(methylamino)-N-[5-(5-methyl-1,2-oxazol-4-yl)-6-(2-phenyl-ethynyl)pyridin-2-yl]propanamide]
276 nM	CNC(C)C(=O)Nc1ccc(-c2cnn(C)c2-c2ccccc2)c(C#Cc2ccccc2)n1 (centres unmarked) [Example 190, 2-(methylamino)-N-[5-(1-methyl-5-phenylpyrazol-4-yl)-6-(2-phenylethynyl)pyridin-2-yl]-propanamide]
141 nM	CNC(C)C(=O)Nc1ccc(-c2c[nH]nc2C(=O)OC)c(C#Cc2ccccc2)n1 (centres unmarked) [Example 193, methyl 4-[6-[[2-(methylamino)-propanoyl]amino]-2-(2-phenyl-ethynyl)pyridin-3-yl]-1H-pyrazole-3-carboxylate]
609 nM	CNC(C)C(=O)Nc1ccc(-c2c(C)ncn2Cc2ccccc2)c(C#Cc2ccccc2)n1 (centres unmarked) [Example 196, N-[5-(3-benzyl-5-methylimidazol-4-yl)-6-(2-phenylethynyl)pyridin-2-yl]-2-(methylamino)propan-amide]
3180 nM	CC(N)C(=O)Nc1cc(Cl)cc(C#Cc2ccccc2)n1 (centres unmarked) [Example 197, 2-amino-N-[4-chloro-6-(2-phenylethynyl)pyridin-2-yl]propanamide]
268 nM	CNC(C)C(=O)Nc1cc(OC)c(-c2cncnc2)c(C#Cc2ccccc2)n1 (centres unmarked) [Example 199, N-[4-methoxy-6-(2-phenyl-ethynyl)-5-pyrimidin-5-ylpyridin-2-yl]-2-(methyl-amino)propanamide]
1790 nM	Cc1cc(C#Cc2ccccc2)nc(NC(=O)C(C)N)c1 (centres unmarked) [Example 200, 2-amino-N-[4-methyl-6-(2-phenylethynyl)pyridin-2-yl]propanamide]
10800 nM	CNC(C)C(=O)Nc1cc(C(F)(F)F)c(-c2cncnc2)c(C#Cc2ccccc2)n1 (centres unmarked) [Example 201, 2-(methylamino)-N-[6-(2-phenylethynyl)-5-pyrimidin-5-yl-4-(trifluoromethyl)pyridin-2-yl]propanamide]
483 nM	CNC(C)C(=O)Nc1cc(Cl)c(-c2cncnc2)c(C#Cc2ccccc2)n1 (centres unmarked) [Example 202, N-[4-chloro-6-(2-phenylethynyl)-5-pyrimidin-5-ylpyridin-2-yl]-2-(methyl-amino)propanamide]
2300 nM	Cc1ccc(C#Cc2nc(NC(=O)C(C)N)cc3ccccc23)cc1 (centres unmarked) [Example 205, 2-amino-N-[1-[2-(4-methyl-phenyl)ethynyl]isoquinolin-3-yl]propanamide]
4240 nM	CC(N)C(=O)Nc1cc2ccccc2c(C#Cc2ccc(Cl)cc2)n1 (centres unmarked) [Example 207, 2-amino-N-[1-[2-(4-chlorophenyl)ethynyl]-isoquinolin-3-yl]propan-amide]
1460 nM	Cc1ccc(C#Cc2cccc(NC(=O)C(C)N)n2)cc1 (centres unmarked) [Example 209, 2-amino-N-[6-[2-(4-methylphenyl)ethynyl]pyridin-2-yl]propanamide]
2610 nM	CC(N)C(=O)Nc1cccc(C#Cc2ccc(F)cc2F)n1 (centres unmarked) [Example 210, 2-amino-N-[6-[2-(2,4-difluorophenyl)ethynyl]pyridin-2-yl]propanamide]
2010 nM	CC(N)C(=O)Nc1cccc(C#Cc2ccc(Cl)cc2)n1 (centres unmarked) [Example 211, 2-amino-N-[6-[2-(4-chlorophenyl)ethynyl]pyridin-2-yl]propanamide]
3060 nM	CC(N)C(=O)Nc1cccc(C#Cc2ccc(F)c(F)c2)n1 (centres unmarked) [Example 212, 2-amino-N-[6-[2-(3,4-difluorophenyl)ethynyl]pyridin-2-yl]propanamide]
